# Assay results from US5814488A (priority 1993, dated 1998).
# Where two headings read alike, the source gives them in different places.
# Tests used:
# bacteria infected mice = test: In vivo therapeutic effect on bacteria infected mice; settings: similar to those in vitro
# Streptococcus viridans = test: In vitro antibacterial activity against 1108 strains pathogenic bacteria (Table 4); type: cell-based; settings: 27 strains
# Streptococcus pyogenes = test: as above; type: cell-based; settings: 27 strains
# [1] = Nephrotoxicity to rat after i.m. administration; settings: gentamicin at 150 MKD and 100 MKD from seventh day
# Staphylococcus arueus = test: In vitro antibacterial activity against 1108 strains pathogenic bacteria (Table 4); type: cell-based; settings: 190 strains
# Serratia sp. = test: as above; type: cell-based; settings: 30 strains
# Shigella dysenteriae = test: as above; type: cell-based
# Klebsiella pneumoniae [2] = test: as above; type: cell-based
# From the text: (§1) […]. […] […]
# Enterobacter aerugenes = test: as above; type: cell-based
# From the text: as §1
# Ciltrobacter sp. = test: as above; type: cell-based; settings: 30 strains
# From the text: as §1
# Acinetobacter sp. = test: as above; type: cell-based; settings: 27 strains
# From the text: as §1
# Proteus mirabilis = test: as above; type: cell-based; settings: 60 strains
# From the text: as §1
# Pseudomonas sp. [3] = test: as above; type: cell-based; settings: 204 strains
# From the text: as §1
# Salmonella typhi = test: as above; type: cell-based; settings: Salmonella enterica
# From the text: as §1
# Escherichia coli [4] = test: as above; type: cell-based
# From the text: as §1
# [5] = system: Methicillin resistant S. aureus; test: as above; type: cell-based; settings: Staphylococcus aureus, 53 strains
# Enterobacter cloacae = test: as above; type: cell-based; settings: 29 strains
# Streptococcus pneumoniae = test: as above; type: cell-based; settings: 14 strains
# Streptococcus faecalis = test: as above; type: cell-based; settings: Enterococcus faecalis, 33 strains
# [6] = system: Staphylococcus epidermidis; test: as above; type: cell-based; settings: 27 strains
# [7] = Acute toxicity, Kunming mice; settings: versus netilmicin and GM
# Klebsiella pneumoniae [8] = test: Comparison of MIC and MBC (Tables 5 and 6); type: cell-based
# From the text: as §1
# S. aureus = test: Comparison of MIC and MBC (Tables 5 and 6); type: cell-based; settings: S. aureus, 31 strains
# From the text: as §1
# Shigella = test: Comparison of MIC and MBC (Tables 5 and 6); type: cell-based
# From the text: as §1
# Pseudomonas sp. [9] = test: Comparison of MIC and MBC (Tables 5 and 6); type: cell-based
# From the text: as §1
# Escherichia coli [10] = test: Comparison of MIC and MBC (Tables 5 and 6); type: cell-based
# From the text: as §1
# [11] = Chronic toxicity, rat i.p. 90 days
# Haemophilus influenzae = test: In vitro antibacterial activity against 1108 strains pathogenic bacteria (Table 4); type: cell-based; settings: 8 strains
# [12] = Enterobacter aerugenes, 27 strains
# [13] = Table 5, 20 strains, read-out: MBC50
# [14] = Table 5, 20 strains, read-out: MBC90
# [15] = Table 6, 20 strains, unit assumed
structure (smiles),measurement,setting,value
CCNC1CC(N)C(OC2OC(CN)CCC2N)C(O)C1OC1OCC(C)(O)C(NC)C1O (stereo not drawn),inhibitive and germicide activities in vivo,bacteria infected mice,high inhibitive activities and germicide activities in vivo which are similar to those in vitro
same,MIC50,Streptococcus viridans,1 µg/mL
same,MIC90,Streptococcus viridans,4 µg/mL
same,MIC,Streptococcus viridans; read-out: MIC range,0.062 to 4 µg/mL
same,MIC,Streptococcus viridans; read-out: Mode MIC,2 µg/mL
same,MIC50,Streptococcus pyogenes,1 µg/mL
same,MIC90,Streptococcus pyogenes,32 µg/mL
same,MIC,Streptococcus pyogenes; read-out: MIC range,0.25 to 128 µg/mL
same,MIC,Streptococcus pyogenes; read-out: Mode MIC,1 µg/mL
same,dead animals,[1],no dead
same,MIC50,Staphylococcus arueus,1 µg/mL
same,MIC90,Staphylococcus arueus,16 µg/mL
same,MIC range,Staphylococcus arueus; in µg/mL (unit assumed),0.031-128
same,MIC,Staphylococcus arueus; read-out: Mode MIC,0.062 µg/mL
same,MIC50,Serratia sp.,0.5 µg/mL
same,MIC90,Serratia sp.,32 µg/mL
same,MIC range,Serratia sp.; in µg/mL (unit assumed),0.062-256
same,MIC,Serratia sp.; read-out: Mode MIC,0.5 µg/mL
same,MIC50,Shigella dysenteriae,0.25 µg/mL
same,MIC90,Shigella dysenteriae,0.5 µg/mL
same,MIC,Shigella dysenteriae; read-out: MIC range,0.125 to 64 µg/mL
same,MIC,Shigella dysenteriae; read-out: Mode MIC,0.25 µg/mL
same,MIC50,Klebsiella pneumoniae [2],0.125 µg/mL
same,MIC90,Klebsiella pneumoniae [2]; 115 strains,8 µg/mL
same,MIC range,"Klebsiella pneumoniae [2]; 115 strains, in µg/mL (unit assumed)",0.062-128
same,MIC,Klebsiella pneumoniae [2]; read-out: Mode MIC,0.125 µg/mL
same,MIC50,Enterobacter aerugenes; [12],0.25 µg/mL
same,MIC90,Enterobacter aerugenes; [12],16 µg/mL
same,MIC,"Enterobacter aerugenes; Enterobacter aerugenes, 27 strains, read-out: MIC range",0.062 to 32 µg/mL
same,MIC,"Enterobacter aerugenes; Enterobacter, read-out: Mode MIC",0.125 µg/mL
same,MIC50,Ciltrobacter sp.,0.25 µg/mL
same,MIC90,Ciltrobacter sp.,16 µg/mL
same,MIC range,Ciltrobacter sp.; in µg/mL (unit assumed),0.125-128
same,MIC,Ciltrobacter sp.; read-out: Mode MIC,0.25 µg/mL
same,MIC50,Acinetobacter sp.,0.5 µg/mL
same,MIC90,Acinetobacter sp.,256 µg/mL
same,MIC range,Acinetobacter sp.; in µg/mL (unit assumed),0.125-256
same,MIC,Acinetobacter sp.; read-out: Mode MIC,0.25 µg/mL
same,MIC50,Proteus mirabilis,0.5 µg/mL
same,MIC90,Proteus mirabilis,2 µg/mL
same,MIC range,Proteus mirabilis; in µg/mL (unit assumed),0.125-128
same,MIC,Proteus mirabilis; read-out: Mode MIC,0.5 µg/mL
same,MIC50,Pseudomonas sp. [3],8 µg/mL
same,MIC90,Pseudomonas sp. [3],> 256 µg/mL
same,MIC,Pseudomonas sp. [3]; read-out: Mode MIC,8 µg/mL
same,MIC50,Salmonella typhi,0.5 µg/mL
same,MIC90,Salmonella typhi,8 µg/mL
same,MIC,Salmonella typhi; read-out: MIC range,0.062 to 32 µg/mL
same,MIC,Salmonella typhi; read-out: Mode MIC,0.5 µg/mL
same,MIC50,Escherichia coli [4]; 146 strains,0.25 µg/mL
same,MIC90,Escherichia coli [4]; 146 strains,16 µg/mL
same,MIC,"Escherichia coli [4]; 146 strains, read-out: Mode MIC",0.25 µg/mL
same,MIC,Escherichia coli [4]; read-out: MIC range,0.125 to 64 µg/mL
same,MIC50,[5],8 µg/mL
same,MIC90,[5],32 µg/mL
same,MIC,[5]; read-out: MIC range,0.5 to 128 µg/mL
same,MIC,[5]; read-out: Mode MIC,8 µg/mL
same,MIC50,Enterobacter cloacae,2 µg/mL
same,MIC90,Enterobacter cloacae,64 µg/mL
same,MIC,Enterobacter cloacae; read-out: Mode MIC,0.25 µg/mL
same,MIC50,Streptococcus pneumoniae,0.25 µg/mL
same,MIC90,Streptococcus pneumoniae,4 µg/mL
same,MIC,Streptococcus pneumoniae; read-out: MIC range,0.031 to 16 µg/mL
same,MIC,Streptococcus pneumoniae; read-out: Mode MIC,0.031 µg/mL
same,MIC50,Streptococcus faecalis,32 µg/mL
same,MIC90,Streptococcus faecalis,256 µg/mL
same,MIC,Streptococcus faecalis; read-out: MIC range,0.5 to 256 µg/mL
same,MIC,Streptococcus faecalis; read-out: Mode MIC,1 µg/mL
same,MIC50,[6],0.31 µg/mL
same,MIC90,[6],1 µg/mL
same,MIC,[6]; read-out: MIC range,0.031 to 16 µg/mL
same,MIC,[6]; read-out: Mode MIC,0.031 µg/mL
same,"acute toxicity, comparison",[7],lower than that of netilmicin obviously and similar to that of GM
same,MIC50,Klebsiella pneumoniae [8],0.125 µg/mL
same,MIC90,Klebsiella pneumoniae [8],0.125 µg/mL
same,MBC,Klebsiella pneumoniae [8]; [13],0.25 µg/mL
same,MBC,Klebsiella pneumoniae [8]; [14],0.5 µg/mL
same,MBC,"Klebsiella pneumoniae [8]; Table 6, 20 strains, read-out: MBC range",0.062 to 1 µg/mL
same,MBC90,Klebsiella pneumoniae [8]; [15],0.5 µg/mL
same,MBC,"S. aureus; Staphylococcus aureus, Table 5, read-out: MBC50",0.5 µg/mL
same,MBC,"S. aureus; Staphylococcus aureus, Table 5, read-out: MBC90",2 µg/mL
same,MIC50,"S. aureus; Staphylococcus aureus, Table 5, read-out: MIC50",0.062 µg/mL
same,MIC90,"S. aureus; Staphylococcus aureus, Table 5, read-out: MIC90",0.25 µg/mL
same,MBC,"S. aureus; Staphylococcus aureus, Table 6, read-out: MBC range",0.062 to 4 µg/mL
same,MBC90,"S. aureus; Table 6, unit assumed",2 µg/mL
same,MIC50,"Shigella; Table 5, 10 strains",0.062 µg/mL
same,MBC,"Shigella; Table 5, 10 strains, read-out: MBC50",0.5 µg/mL
same,MBC,"Shigella; Table 5, 10 strains, read-out: MBC90",1 µg/mL
same,MIC90,"Shigella; Table 5, 10 strains, read-out: MIC90",0.125 µg/mL
same,MBC,"Shigella; Table 6, 10 strains, read-out: MBC range",0.125 to 1 µg/mL
same,MBC90,"Shigella; Table 6, 10 strains, unit assumed",1 µg/mL
same,MIC50,Pseudomonas sp. [9]; Pseudomonas,1 µg/mL
same,MIC90,Pseudomonas sp. [9]; Pseudomonas,4 µg/mL
same,MBC,"Pseudomonas sp. [9]; Pseudomonas, read-out: MBC50",2 µg/mL
same,MBC,"Pseudomonas sp. [9]; Pseudomonas, read-out: MBC90",8 µg/mL
same,MBC,"Pseudomonas sp. [9]; Table 6, Pseudomonas sp., 20 strains, read-out: MBC range",0.25 to 16 µg/mL
same,MBC90,"Pseudomonas sp. [9]; Table 6, Pseudomonas sp., 20 strains, unit assumed",8 µg/mL
same,MIC50,Escherichia coli [10],0.125 µg/mL
same,MBC,Escherichia coli [10]; [13],0.25 µg/mL
same,MBC,Escherichia coli [10]; [14],1 µg/mL
same,MIC90,"Escherichia coli [10]; Table 5, 20 strains, read-out: MIC90",0.5 µg/mL
same,MBC90,Escherichia coli [10]; [15],1 µg/mL
same,MBC,Escherichia coli [10]; read-out: MBC range,0.125 to 8 µg/mL
same,"chronic toxicity, comparison with MCR",[11],not greater than that of MCR
same,MIC50,Haemophilus influenzae,0.031 µg/mL
same,MIC90,Haemophilus influenzae,4 µg/mL
same,MIC,Haemophilus influenzae; read-out: MIC range,0.031 to 4 µg/mL
same,MIC,Haemophilus influenzae; read-out: Mode MIC,0.031 µg/mL
